Assay results taken from PubChem BioAssay (NCI).
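Assay format: 96-well plates, 48-hour exposure. TGI: total growth inhibition.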

Key:
Assay in all cases: NCI anticancer screen, dose series, 48 h
SN12C renal = system: SN12C renal
COLO 205 colon = system: COLO 205 colon
T-47D breast = system: T-47D breast
LOX IMVI melanoma = system: LOX IMVI melanoma
MDA-N = system: MDA-N
SR leukemia = system: SR leukemia
HCT-15 colon = system: HCT-15 colon
HT29 colon = system: HT29 colon
MOLT-4 leukemia = system: MOLT-4 leukemia
SW-620 colon = system: SW-620 colon
HS 578T breast = system: HS 578T breast
RPMI-8226 leukemia = system: RPMI-8226 leukemia
TK-10 renal = system: TK-10 renal
SF-268 CNS = system: SF-268 CNS
SNB-75 CNS = system: SNB-75 CNS
NCI-H460 lung = system: NCI-H460 lung
SK-MEL-2 melanoma = system: SK-MEL-2 melanoma
SK-MEL-5 melanoma = system: SK-MEL-5 melanoma
U251 CNS = system: U251 CNS
NCI-H23 lung = system: NCI-H23 lung
OVCAR-4 ovarian = system: OVCAR-4 ovarian
MCF7 breast = system: MCF7 breast
SF-295 CNS = system: SF-295 CNS
UACC-62 melanoma = system: UACC-62 melanoma
NCI/ADR-RES ovarian = system: NCI/ADR-RES ovarian
CAKI-1 renal = system: CAKI-1 renal
HCC-2998 colon = system: HCC-2998 colon
SK-MEL-28 melanoma = system: SK-MEL-28 melanoma
UACC-257 melanoma = system: UACC-257 melanoma
MALME-3M melanoma = system: MALME-3M melanoma
CCRF-CEM leukemia = system: CCRF-CEM leukemia
IGROV1 ovarian = system: IGROV1 ovarian
786-0 renal = system: 786-0 renal
M14 melanoma = system: M14 melanoma
A549 NSCLC = system: A549 NSCLC
ACHN renal = system: ACHN renal
A498 renal = system: A498 renal
HOP-92 NSCLC = system: HOP-92 NSCLC
EKVX NSCLC = system: EKVX NSCLC
SK-OV-3 ovarian = system: SK-OV-3 ovarian
K-562 leukemia = system: K-562 leukemia
HOP-62 NSCLC = system: HOP-62 NSCLC
OVCAR-8 ovarian = system: OVCAR-8 ovarian
UO-31 renal = system: UO-31 renal
OVCAR-3 ovarian = system: OVCAR-3 ovarian
OVCAR-5 ovarian = system: OVCAR-5 ovarian
MDA-MB-231 breast = system: MDA-MB-231 breast
DU-145 prostate = system: DU-145 prostate
HL-60(TB) leukemia = system: HL-60(TB) leukemia
RXF 393 renal = system: RXF 393 renal
PC-3 prostate = system: PC-3 prostate
SF-539 CNS = system: SF-539 CNS
KM12 colon = system: KM12 colon
NCI-H226 lung = system: NCI-H226 lung
BT-549 breast = system: BT-549 breast
MDA-MB-435 = system: MDA-MB-435
SNB-19 CNS = system: SNB-19 CNS
NCI-H522 lung = system: NCI-H522 lung
HCT-116 colon = system: HCT-116 colon

## CC(=O)O[C@H]1CC[C@H]2[C@@H]3CCC4C(C)=NNC(=O)C4[C@H]3CC[C@]12C (stereo partly drawn)
SN12C renal
  TGI: > 100 µM
COLO 205 colon
  TGI: > 100 µM
T-47D breast
  TGI: > 100 µM
LOX IMVI melanoma
  TGI: > 75.4 µM
MDA-N
  TGI: > 100 µM
SR leukemia
  TGI: > 100 µM
HCT-15 colon
  TGI: > 100 µM
HT29 colon
  TGI: > 100 µM
MOLT-4 leukemia
  TGI: > 100 µM
SW-620 colon
  TGI: > 100 µM
HS 578T breast
  TGI: 64.2 µM
RPMI-8226 leukemia
  TGI: > 100 µM
TK-10 renal
  TGI: > 100 µM
SF-268 CNS
  TGI: > 100 µM
SNB-75 CNS
  TGI: 33.7 µM
NCI-H460 lung
  TGI: > 100 µM
SK-MEL-2 melanoma
  TGI: > 100 µM
SK-MEL-5 melanoma
  TGI: > 100 µM
U251 CNS
  TGI: > 100 µM
NCI-H23 lung
  TGI: > 100 µM
OVCAR-4 ovarian
  TGI: > 100 µM
MCF7 breast
  TGI: > 100 µM
SF-295 CNS
  TGI: > 100 µM
UACC-62 melanoma
  TGI: > 100 µM
NCI/ADR-RES ovarian
  TGI: > 100 µM
CAKI-1 renal
  TGI: > 100 µM
HCC-2998 colon
  TGI: > 100 µM
SK-MEL-28 melanoma
  TGI: > 100 µM
UACC-257 melanoma
  TGI: > 100 µM
MALME-3M melanoma
  TGI: > 100 µM
CCRF-CEM leukemia
  TGI: > 100 µM
IGROV1 ovarian
  TGI: > 79.4 µM
786-0 renal
  TGI: > 100 µM
M14 melanoma
  TGI: > 100 µM
A549 NSCLC
  TGI: > 100 µM
ACHN renal
  TGI: > 100 µM
A498 renal
  TGI: > 100 µM
HOP-92 NSCLC
  TGI: > 100 µM
EKVX NSCLC
  TGI: > 100 µM
SK-OV-3 ovarian
  TGI: > 100 µM
K-562 leukemia
  TGI: > 100 µM
HOP-62 NSCLC
  TGI: 57.6 µM
OVCAR-8 ovarian
  TGI: > 100 µM
UO-31 renal
  TGI: > 100 µM
OVCAR-3 ovarian
  TGI: > 100 µM
OVCAR-5 ovarian
  TGI: > 100 µM
MDA-MB-231 breast
  TGI: > 82.8 µM
DU-145 prostate
  TGI: > 100 µM
HL-60(TB) leukemia
  TGI: > 100 µM
RXF 393 renal
  TGI: > 100 µM
PC-3 prostate
  TGI: > 100 µM
SF-539 CNS
  TGI: > 100 µM
KM12 colon
  TGI: > 100 µM
NCI-H226 lung
  TGI: > 100 µM
BT-549 breast
  TGI: > 69.7 µM
MDA-MB-435
  TGI: > 100 µM
SNB-19 CNS
  TGI: > 82.9 µM
NCI-H522 lung
  TGI: > 86.7 µM
HCT-116 colon
  TGI: > 100 µM

## O=C(c1ccccc1)c1ccc2nc3n(c2c1)C(c1c(F)cccc1F)SC3 (stereo not drawn)
SN12C renal
  TGI: 34.8 µM
COLO 205 colon
  TGI: 21.7 µM
T-47D breast
  TGI: 33 µM
LOX IMVI melanoma
  TGI: 36.6 µM
MDA-N
  TGI: 3.43 µM
SR leukemia
  TGI: 9.4 µM
HCT-15 colon
  TGI: > 59 µM
HT29 colon
  TGI: 39.5 µM
MOLT-4 leukemia
  TGI: 27.6 µM
SW-620 colon
  TGI: > 100 µM
HS 578T breast
  TGI: > 81 µM
RPMI-8226 leukemia
  TGI: > 100 µM
TK-10 renal
  TGI: > 100 µM
SF-268 CNS
  TGI: > 70.2 µM
SNB-75 CNS
  TGI: 29.4 µM
NCI-H460 lung
  TGI: 52.2 µM
SK-MEL-2 melanoma
  TGI: 31.2 µM
SK-MEL-5 melanoma
  TGI: 18.1 µM
U251 CNS
  TGI: > 63.4 µM
NCI-H23 lung
  TGI: > 61.7 µM
OVCAR-4 ovarian
  TGI: > 73.6 µM
MCF7 breast
  TGI: 50.5 µM
SF-295 CNS
  TGI: 13.8 µM
UACC-62 melanoma
  TGI: 21.3 µM
NCI/ADR-RES ovarian
  TGI: 26.5 µM
CAKI-1 renal
  TGI: 44.4 µM
HCC-2998 colon
  TGI: > 52.5 µM
SK-MEL-28 melanoma
  TGI: > 70.5 µM
UACC-257 melanoma
  TGI: 91.1 µM
MALME-3M melanoma
  TGI: 46.7 µM
CCRF-CEM leukemia
  TGI: 37.6 µM
IGROV1 ovarian
  TGI: > 100 µM
786-0 renal
  TGI: 47.8 µM
M14 melanoma
  TGI: 15.4 µM
A549 NSCLC
  TGI: > 84.8 µM
ACHN renal
  TGI: 24.8 µM
A498 renal
  TGI: 13.5 µM
HOP-92 NSCLC
  TGI: > 100 µM
EKVX NSCLC
  TGI: > 48.4 µM
SK-OV-3 ovarian
  TGI: 26.7 µM
K-562 leukemia
  TGI: > 100 µM
HOP-62 NSCLC
  TGI: 52.2 µM
OVCAR-8 ovarian
  TGI: 98.4 µM
UO-31 renal
  TGI: 56.5 µM
OVCAR-3 ovarian
  TGI: 24.1 µM
OVCAR-5 ovarian
  TGI: > 91.1 µM
MDA-MB-231 breast
  TGI: > 100 µM
DU-145 prostate
  TGI: > 74 µM
HL-60(TB) leukemia
  TGI: > 100 µM
RXF 393 renal
  TGI: 72.8 µM
PC-3 prostate
  TGI: > 80.7 µM
SF-539 CNS
  TGI: > 47.8 µM
KM12 colon
  TGI: 14.3 µM
NCI-H226 lung
  TGI: > 79.2 µM
BT-549 breast
  TGI: > 100 µM
MDA-MB-435
  TGI: 3.96 µM
SNB-19 CNS
  TGI: > 100 µM
NCI-H522 lung
  TGI: 6.14 µM
HCT-116 colon
  TGI: 13.5 µM
